Data published in ChEMBL document CHEMBL3046514, “Synthesis of novel cyclobutylphosphonic acids as inhibitors of imidazole glycerol phosphate dehydratase” (Tetrahedron, 1997).
pIC50: −log10 of the molar value.

Test: Inhibition of purified Triticum aestivum (wheat) germ imidazole glycerol phosphate dehydratase

Compound	pIC50
O=P(O)(O)[C@H]1C[C@@](O)(c2nc[nH]n2)C1	3.57
O[C@@]1(c2nc[nH]n2)CCC[C@H](P(O)(O)=P)C1	5.74
O=P(O)(O)[C@@H]1CCC[C@](O)(c2nc[nH]n2)C1	7.74

Second part, the molecule after the results:

pIC50	Compound
7.40	O=P(O)(O)[C@@H]1CCC[C@](O)(c2nc[nH]n2)C1 (relative stereo)
5.00	O=P(O)(O)[C@@H]1CCC[C@@](O)(c2nc[nH]n2)C1 (relative stereo)
